Values quoted from earlier work as cited in patent publication US20190367449A1, “PHENYLCREATINE, ITS USE AND METHOD FOR ITS PRODUCTION” (priority 2017, published 2019).

Details: in vivo; cited from earlier work

Which “Relative bioavailability, higher than of creatine monohydrate” value does the source give for `CN(CC(=O)O)C(=N)N.Cl` [creatine hydrochloride] here?
The value was “about 50%”.
